According to ChEMBL document CHEMBL1153552, “Comparative in vitro pharmacodynamics of caspofungin, micafungin, and anidulafungin against germinated and nongerminated Aspergillus conidia” (2008):
Active and inactive are the calls of the source. The calls are words filed in the database; no cut-off is given here.

Key:
Aspergillus fumigatus [1] = assay: Antifungal activity against nongerminated Aspergillus fumigatus assessed as lowest drug concentration that produced short, stubby and highly branched hyphae after 48 hrs by microscopic analysis; assay type: functional; details: read-out: MEC
Aspergillus fumigatus [2] = assay: Antifungal activity against germinated Aspergillus fumigatus assessed as lowest drug concentration that produced short, stubby and highly branched hyphae after 48 hrs by microscopic analysis; assay type: functional; details: read-out: MEC
Aspergillus fumigatus [3] = assay: Ratio of log2 of MEC for germinated Aspergillus fumigatus to log2 of MEC for nongerminated Aspergillus fumigatus; assay type: functional
Aspergillus terreus [4] = assay: Antifungal activity against nongerminated Aspergillus terreus assessed as lowest drug concentration that produced short, stubby and highly branched hyphae after 48 hrs by microscopic analysis; assay type: functional; details: read-out: MEC
Aspergillus terreus [5] = assay: Antifungal activity against germinated Aspergillus terreus assessed as lowest drug concentration that produced short, stubby and highly branched hyphae after 48 hrs by microscopic analysis; assay type: functional; details: read-out: MEC
Aspergillus terreus [6] = assay: Ratio of log2 of MEC for germinated Aspergillus terreus to log2 of MEC for nongerminated Aspergillus terreus; assay type: functional
Aspergillus flavus [7] = assay: Antifungal activity against nongerminated Aspergillus flavus assessed as lowest drug concentration that produced short, stubby and highly branched hyphae after 48 hrs by microscopic analysis; assay type: functional; details: read-out: MEC
Aspergillus flavus [8] = assay: Antifungal activity against germinated Aspergillus flavus assessed as lowest drug concentration that produced short, stubby and highly branched hyphae after 48 hrs by microscopic analysis; assay type: functional; details: read-out: MEC
Aspergillus flavus [9] = assay: Ratio of log2 of MEC for germinated Aspergillus flavus to log2 of MEC for nongerminated Aspergillus flavus; assay type: functional
Aspergillus fumigatus [10] = assay: Effect on nongerminated Aspergillus fumigatus metabolic activity assessed as drug concentration at which fungal metabolic activity occurs after 2 hrs by XTT assay; assay type: functional
Aspergillus fumigatus [11] = assay: Effect on germinated Aspergillus fumigatus metabolic activity assessed as drug concentration at which fungal metabolic activity occurs after 2 hrs by XTT assay; assay type: functional
Aspergillus fumigatus [12] = assay: Effect on Aspergillus fumigatus metabolic activity assessed number of twofold drug dilutions required for germinated fungal metabolic activity to nongerminated fungal metabolic activity; assay type: functional
Aspergillus terreus [13] = assay: Effect on nongerminated Aspergillus terreus metabolic activity assessed as drug concentration at which fungal metabolic activity occurs after 2 hrs by XTT assay; assay type: functional
Aspergillus terreus [14] = assay: Effect on germinated Aspergillus terreus metabolic activity assessed as drug concentration at which fungal metabolic activity occurs after 2 hrs by XTT assay; assay type: functional
Aspergillus terreus [15] = assay: Effect on Aspergillus terreus metabolic activity assessed number of twofold drug dilutions required for germinated fungal metabolic activity to nongerminated fungal metabolic activity; assay type: functional
Aspergillus flavus [16] = assay: Effect on nongerminated Aspergillus flavus metabolic activity assessed as drug concentration at which fungal metabolic activity occurs after 2 hrs by XTT assay; assay type: functional
Aspergillus flavus [17] = assay: Effect on germinated Aspergillus flavus metabolic activity assessed as drug concentration at which fungal metabolic activity occurs after 2 hrs by XTT assay; assay type: functional
Aspergillus flavus [18] = assay: Effect on Aspergillus flavus metabolic activity assessed number of twofold drug dilutions required for germinated fungal metabolic activity to nongerminated fungal metabolic activity; assay type: functional
Aspergillus fumigatus [19] = assay: Induction of maximal metabolic inhibition in nongerminated Aspergillus fumigatus assessed as minimal metabolic activity Ymin after 2 hrs by XTT assay; assay type: functional; set-up: scale not given: the % may be the effect or the level left
Aspergillus fumigatus [20] = assay: Induction of maximal metabolic inhibition in germinated Aspergillus fumigatus assessed as minimal metabolic activity Ymin after 2 hrs by XTT assay; assay type: functional; set-up: scale not given: the % may be the effect or the level left
Aspergillus terreus [21] = assay: Induction of maximal metabolic inhibition in nongerminated Aspergillus terreus assessed as minimal metabolic activity Ymin after 2 hrs by XTT assay; assay type: functional; set-up: scale not given: the % may be the effect or the level left
Aspergillus terreus [22] = assay: Induction of maximal metabolic inhibition in germinated Aspergillus terreus assessed as minimal metabolic activity Ymin after 2 hrs by XTT assay; assay type: functional; set-up: scale not given: the % may be the effect or the level left
Aspergillus flavus [23] = assay: Induction of maximal metabolic inhibition in nongerminated Aspergillus flavus assessed as minimal metabolic activity Ymin after 2 hrs by XTT assay; assay type: functional; set-up: scale not given: the % may be the effect or the level left
Aspergillus flavus [24] = assay: Induction of maximal metabolic inhibition in germinated Aspergillus flavus assessed as minimal metabolic activity Ymin after 2 hrs by XTT assay; assay type: functional; set-up: scale not given: the % may be the effect or the level left
Aspergillus fumigatus [25] = assay: Decrease in nongerminated Aspergillus fumigatus metabolism assessed as metabolic activity at 64 ug/mL after 48 hrs by XTT assay; assay type: functional; set-up: scale not given: the % may be the effect or the level left
Aspergillus fumigatus [26] = assay: Decrease in germinated Aspergillus fumigatus metabolism assessed as metabolic activity at 64 ug/mL after 48 hrs by XTT assay; assay type: functional; set-up: scale not given: the % may be the effect or the level left
Aspergillus terreus [27] = assay: Decrease in nongerminated Aspergillus terreus metabolism assessed as metabolic activity at 64 ug/mL after 48 hrs by XTT assay; assay type: functional; set-up: scale not given: the % may be the effect or the level left
Aspergillus terreus [28] = assay: Decrease in germinated Aspergillus terreus metabolism assessed as metabolic activity at 64 ug/mL after 48 hrs by XTT assay; assay type: functional; set-up: scale not given: the % may be the effect or the level left
Aspergillus flavus [29] = assay: Decrease in nongerminated Aspergillus flavus metabolism assessed as metabolic activity at 64 ug/mL after 48 hrs by XTT assay; assay type: functional; set-up: scale not given: the % may be the effect or the level left
Aspergillus flavus [30] = assay: Decrease in germinated Aspergillus flavus metabolism assessed as metabolic activity at 64 ug/mL after 48 hrs by XTT assay; assay type: functional; set-up: scale not given: the % may be the effect or the level left
Aspergillus fumigatus [31] = assay: Decrease in nongerminated Aspergillus fumigatus metabolism assessed as metabolic activity at 128 ug/mL after 48 hrs by XTT assay; assay type: functional; set-up: scale not given: the % may be the effect or the level left
Aspergillus fumigatus [32] = assay: Decrease in germinated Aspergillus fumigatus metabolism assessed as metabolic activity at 128 ug/mL after 48 hrs by XTT assay; assay type: functional; set-up: scale not given: the % may be the effect or the level left
Aspergillus terreus [33] = assay: Decrease in nongerminated Aspergillus terreus metabolism assessed as metabolic activity at 128 ug/mL after 48 hrs by XTT assay; assay type: functional; set-up: scale not given: the % may be the effect or the level left
Aspergillus terreus [34] = assay: Decrease in germinated Aspergillus terreus metabolism assessed as metabolic activity at 128 ug/mL after 48 hrs by XTT assay; assay type: functional; set-up: scale not given: the % may be the effect or the level left
Aspergillus flavus [35] = assay: Decrease in nongerminated Aspergillus flavus metabolism assessed as metabolic activity at 128 ug/mL after 48 hrs by XTT assay; assay type: functional; set-up: scale not given: the % may be the effect or the level left
Aspergillus flavus [36] = assay: Decrease in germinated Aspergillus flavus metabolism assessed as metabolic activity at 128 ug/mL after 48 hrs by XTT assay; assay type: functional; set-up: scale not given: the % may be the effect or the level left
Aspergillus fumigatus [37] = assay: Antifungal activity against nongerminated Aspergillus fumigatus assessed as absence of visual fungal growth at 128 ug/mL; assay type: functional, organism-based
Aspergillus fumigatus [38] = assay: Antifungal activity against germinated Aspergillus fumigatus assessed as absence of visual fungal growth at 128 ug/mL; assay type: functional, organism-based
Aspergillus terreus [39] = assay: Antifungal activity against nongerminated Aspergillus terreus assessed as absence of visual fungal growth at 128 ug/mL; assay type: functional, organism-based
Aspergillus terreus [40] = assay: Antifungal activity against germinated Aspergillus terreus assessed as absence of visual fungal growth at 128 ug/mL; assay type: functional, organism-based
Aspergillus flavus [41] = assay: Antifungal activity against nongerminated Aspergillus flavus assessed as absence of visual fungal growth at 128 ug/mL; assay type: functional, organism-based
Aspergillus flavus [42] = assay: Antifungal activity against germinated Aspergillus flavus assessed as absence of visual fungal growth at 128 ug/mL; assay type: functional, organism-based

With CC[C@H](C)C[C@H](C)CCCCCCCCC(=O)N[C@H]1C[C@@H](O)[C@@H](NCCN)NC(=O)[C@@H]2[C@@H](O)CCN2C(=O)[C@H]([C@H](O)CCN)NC(=O)[C@H]([C@H](O)[C@@H](O)c2ccc(O)cc2)NC(=O)[C@@H]2C[C@@H](O)CN2C(=O)[C@H]([C@@H](C)O)NC1=O [CASPOFUNGIN] the minimal effective concentration (Aspergillus fumigatus [1]) was 1 µg/mL, the minimal effective concentration (Aspergillus fumigatus [2]) was 1 µg/mL and the Ratio (Aspergillus fumigatus [3]) was 0. It also gave a minimal effective concentration (Aspergillus terreus [4]) of 0.5 µg/mL, a minimal effective concentration (Aspergillus terreus [5]) of 1 µg/mL and a Ratio (Aspergillus terreus [6]) of 1. The minimal effective concentration (Aspergillus flavus [7]) was 1 µg/mL, the minimal effective concentration (Aspergillus flavus [8]) was 1 µg/mL and the Ratio (Aspergillus flavus [9]) was 0. It also gave an EC5 (Aspergillus fumigatus [10]) of 0.67 µg/mL, an EC5 (Aspergillus fumigatus [11]) of 1.2 µg/mL and a Ratio (Aspergillus fumigatus [12]) of 0.96. For the same molecule, the EC5 (Aspergillus terreus [13]) was 0.65 µg/mL, the EC5 (Aspergillus terreus [14]) was 1.06 µg/mL and the Ratio (Aspergillus terreus [15]) was 1.12. It also gave an EC5 (Aspergillus flavus [16]) of 0.64 µg/mL, an EC5 (Aspergillus flavus [17]) of 0.87 µg/mL and a Ratio (Aspergillus flavus [18]) of 0.43. For the same molecule, the Activity (Aspergillus fumigatus [19]) was 26%, the Activity (Aspergillus fumigatus [20]) was 26% and the Activity (Aspergillus terreus [21]) was 34%. It also gave an Activity (Aspergillus terreus [22]) of 35%, an Activity (Aspergillus flavus [23]) of 17% and an Activity (Aspergillus flavus [24]) of 21%. For the same molecule, the Activity (Aspergillus fumigatus [25]) was less than 5%, the Activity (Aspergillus fumigatus [26]) was less than 5% and the Activity (Aspergillus terreus [27]) was less than 5%. It also gave an Activity (Aspergillus terreus [28]) of less than 5%, an Activity (Aspergillus flavus [29]) of less than 5% and an Activity (Aspergillus flavus [30]) of less than 5%. It also gave an Activity (Aspergillus fumigatus [31]) of less than 5%, an Activity (Aspergillus fumigatus [32]) of less than 5% and an Activity (Aspergillus terreus [33]) of less than 5%. The Activity (Aspergillus terreus [34]) was less than 5%, the Activity (Aspergillus flavus [35]) was less than 5% and the Activity (Aspergillus flavus [36]) was less than 5%. For the same molecule, the Activity (Aspergillus fumigatus [37]) was “Active”, the Activity (Aspergillus fumigatus [38]) was “Active” and the Activity (Aspergillus terreus [39]) was “Active”. For the same molecule, the Activity (Aspergillus terreus [40]) was “Active”, the Activity (Aspergillus flavus [41]) was “Active” and the Activity (Aspergillus flavus [42]) was “Active”.
